# Experimental data as given in paper PMC3713598, “Renal Protective Role of Xiexin Decoction with Multiple Active Ingredients Involves Inhibition of Inflammation through Downregulation of the Nuclear Factor-κB Pathway in Diabetic Rats” (Evidence-based Complementary and Alternative Medicine : eCAM, 2013).
# Where two headings read alike, the source gives them in different places.
# Tests used:
# [1] = Pharmacokinetics of XXD ingredients in diabetic rat plasma (LC-MS/MS); assay type: in vivo; settings: diabetic rats; for AUC(0-t) / Cmax: male, Sprague-Dawley, rat, po, plasma, mean ± SD n = 8; for AUC(0-t): read-out: AUC0–24 h; for Cmax: read-out: C max
# Method: (§1) Male Sprague-Dawley rats (90−100 g) were purchased from the Shanghai Slac Laboratory Animal Co. (Shanghai, China). The rats were housed in an air-conditioned room at 22–24°C under a 12-h dark/light cycle and were given food and water at libitum. All animal experiments were conducted in accordance with the institutional guidelines for the care and use of laboratory animals at Shanghai University of TCM. After 1-week adaptation, animals were divided into a normal control (NC) group fed a standard diet and a high-fat group received a high-fat diet. After 4 weeks, rats on the high-fat diet were treated with streptozotocin (40 mg/kg, intraperitoneal injection). […] In the clinical practice of TCM, XXD is usually prescribed at a daily dose of 46 g of herbal materials (amount to 12 g extract) for diabetic patient. When this human dose was converted into an animal dose (a person of 60 kg, and a conversion factor of 6.25 between human and rat), it was equivalent to the low dose (1.25 g/kg extract) used in this study. NC and DM were treated with vehicle (normal saline) in a matched volume. All the rats were administered the drugs via intragastric gavage (ig) once a day, for 12 weeks.
# The rats treated with XXD for 12 weeks were fasted with free access to water for 12 h before the PK experiments. Blood samples were collected before dosing and at 0, 0.25, 0.5, 1, 2, 4, 6, 12, and 24 h following administration. A validated liquid chromatography-tandem mass spectrometry (LC-MS/MS) method was applied to simultaneously determine the concentration of 11 ingredients (coptisine, jatrorrhizine, berberine, palmatine, baicalin, baicalein, wogonoside, wogonin, rhein, emodin, and aloeemodin) in blood plasma. The plasma concentration-time data were analysed by noncompartmental methods with the WinNonLin software package (Pharsight Corporation, Mountain View, CA, USA) to determine PK parameters.
# diabetic nephropathy = settings: cited from earlier work
# diabetic mouse kidney = tested on: diabetic mouse kidney; design: method as in PMID 22483555, PMID 20447389; settings: cited from earlier work
# gut microbes = tested on: gut microbes; design: method as in PMID 21915347, PMID 22880019; settings: by regulation of gut microbes; cited from earlier work
# diabetic rats [2] = assay: Metabolic parameters in diabetic rats (high-fat diet and streptozotocin); assay type: in vivo, rat; settings: for Serum triglyceride: DM 1.1 ± 0.6; for Serum cholesterol: DM 1.5 ± 0.2; for HbA1c: DM 7.2 ± 0.3; for FBG: DM 22.3 ± 2.8; for GAUC (area under the blood glucose response curve): DM 117.1 ± 6.4
# Method: (§3) After 1-week adaptation, animals were divided into a normal control (NC) group fed a standard diet and a high-fat group received a high-fat diet. After 4 weeks, rats on the high-fat diet were treated with streptozotocin (40 mg/kg, intraperitoneal injection). […] NC and DM were treated with vehicle (normal saline) in a matched volume. All the rats were administered the drugs via intragastric gavage (ig) once a day, for 12 weeks.
# At 12 weeks, FBG and area under the blood glucose response curve (GAUC) were measured by glucose oxidase method. HbA1c was determined by HPLC (Biorad, Richmond, CA, USA). Serum creatinine, urine creatinine, serum total cholesterol, and triglyceride levels were measured using an automatic biochemistry analyser (Olympus-2000, Tokyo, Japan). Creatinine clearance was calculated.
# diabetic rats [3] = assay: Renal histopathology (PAS) and electron microscopy in diabetic rats; assay type: in vivo, rat; settings: XXD 1.25 and 2.5 g/kg, losartan 10 mg/kg, metformin 100 mg/kg ig once a day, 12 weeks; compared with DM
# Method: Male Sprague-Dawley rats (90-100 g) were purchased from the Shanghai Slac Laboratory Animal Co. (Shanghai, China). The rats were housed in an air-conditioned room at 22-24°C under a 12-h dark/light cycle and were given food and water at libitum. All animal experiments were conducted in accordance with the institutional guidelines for the care and use of laboratory animals at Shanghai University of TCM. After 1-week adaptation, animals were divided into a normal control (NC) group fed a standard diet and a high-fat group received a high-fat diet. After 4 weeks, rats on the high-fat diet were treated with streptozotocin (40 mg/kg, intraperitoneal injection). All diabetic rats with fasting blood glucose (FBG) levels above 16.7 mmol/L were then randomly divided into 5 groups: diabetic model control (DM); […] In the clinical practice of TCM, XXD is usually prescribed at a daily dose of 46 g of herbal materials (amount to 12 g extract) for diabetic patient. […] The ratio of the mesangial matrix area to glomerular area (M/G) was determined by quantitative Image-Pro Plus software (PAX-it; […], Villa Park, IL, USA). Briefly, 20 glomeruli were randomly selected from each section, and positive signals within the selected glomerulus were highlighted, measured, and quantified as percent positive area of the entire glomerulus. […]
# AGEs = assay: Renal AGEs level by ELISA in diabetic rats; assay type: in vivo, rat; settings: XXD 1.25 and 2.5 g/kg, metformin 100 mg/kg ig once a day, 12 weeks; compared with DM
# Method: as §1
# Tumor necrosis factor α (TNF-α), IL-6 and AGEs protein levels in renal tissue were measured using commercial ELISA kits (R&D, Minneapolis, MN, USA) according to the manufacturer's instructions.
# RAGE = assay: Renal RAGE expression by western blot in diabetic rats; assay type: in vivo, rat; settings: XXD 1.25 and 2.5 g/kg, metformin 100 mg/kg ig once a day, 12 weeks; compared with DM
# Method: as §1, with “NC and DM were treated with vehicle (normal saline) in a matched volume. All the rats were administered the drugs via intragastric gavage (ig) once a day, for 12 weeks.” left out
# Kidney tissue was homogenized in radioimmunoprecipitation assay buffer containing 0.5% Nonidet P-40, 0.5% sodium deoxycholate, 0.1% SDS, 10 mmol/L EDTA, and protease inhibitors. […] The membrane-bound antibody was detected by incubation with chemiluminescent reagent plus (Perkin Elmer Life Sciences, Boston, MA, USA) and the signal captured on X-ray film. […]
# MCP-1 = assay: Renal MCP-1 protein and mRNA expression in diabetic rats; assay type: in vivo, rat; settings: XXD 1.25 and 2.5 g/kg, losartan 10 mg/kg, metformin 100 mg/kg ig once a day, 12 weeks; compared with DM
# Method: as §1, with “rats (90-100” for “rats (90−100”, “at 22-24°C” for “at 22–24°C”, “injection). All diabetic rats with fasting blood glucose (FBG) levels above 16.7 mmol/L were then randomly divided into 5 groups: diabetic model control (DM);” for “injection).”, “study. […] The membrane-bound antibody was detected by incubation with chemiluminescent reagent plus (Perkin Elmer Life Sciences, Boston, MA, USA)” for “study. NC”, “and” for “and DM were treated with vehicle (normal saline) in a matched volume. All”, “the signal captured on X-ray film. […]” for “the rats were administered the drugs via intragastric gavage (ig) once a day, for 12 weeks.”
# ICAM-1 = assay: Renal ICAM-1 protein and mRNA expression in diabetic rats; assay type: in vivo, rat; settings: XXD 1.25 and 2.5 g/kg, losartan 10 mg/kg, metformin 100 mg/kg ig once a day, 12 weeks; compared with DM
# Method: as §1, with “rats (90-100” for “rats (90−100”, “at 22-24°C” for “at 22–24°C”, “injection). All diabetic rats with fasting blood glucose (FBG) levels above 16.7 mmol/L were then randomly divided into 5 groups: diabetic model control (DM);” for “injection).”, “study. […] The membrane-bound antibody was detected by incubation with chemiluminescent reagent plus (Perkin Elmer Life Sciences, Boston, MA, USA)” for “study. NC”, “and” for “and DM were treated with vehicle (normal saline) in a matched volume. All”, “the signal captured on X-ray film. […]” for “the rats were administered the drugs via intragastric gavage (ig) once a day, for 12 weeks.”
# TNF-α = assay: Renal TNF-α level by ELISA in diabetic rats; assay type: in vivo, rat; settings: XXD 1.25 and 2.5 g/kg, losartan 10 mg/kg, metformin 100 mg/kg ig once a day, 12 weeks; compared with DM
# Method: (§2) Male Sprague-Dawley rats (90-100 g) were purchased from the Shanghai Slac Laboratory Animal Co. (Shanghai, China). The rats were housed in an air-conditioned room at 22-24°C under a 12-h dark/light cycle and were given food and water at libitum. All animal experiments were conducted in accordance with the institutional guidelines for the care and use of laboratory animals at Shanghai University of TCM. After 1-week adaptation, animals were divided into a normal control (NC) group fed a standard diet and a high-fat group received a high-fat diet. After 4 weeks, rats on the high-fat diet were treated with streptozotocin (40 mg/kg, intraperitoneal injection). All diabetic rats with fasting blood glucose (FBG) levels above 16.7 mmol/L were then randomly divided into 5 groups: diabetic model control (DM); […] In the clinical practice of TCM, XXD is usually prescribed at a daily dose of 46 g of herbal materials (amount to 12 g extract) for diabetic patient. When this human dose was converted into an animal dose (a person of 60 kg, and a conversion factor of 6.25 between human and rat), it was equivalent to the low dose (1.25 g/kg extract) used in this study. […] Tumor necrosis factor α (TNF-α), IL-6 and AGEs protein levels in renal tissue were measured using commercial ELISA kits (R&D, Minneapolis, MN, USA) according to the manufacturer's instructions.
# diabetic rats [4] = assay: Urinary albumin excretion and renal function in diabetic rats; assay type: in vivo, rat
# Method: as §3
# At 12 weeks, FBG and area under the blood glucose response curve (GAUC) were measured by glucose oxidase method. HbA1c was determined by HPLC (Biorad, Richmond, CA, USA). Serum creatinine, urine creatinine, serum total cholesterol, and triglyceride levels were measured using an automatic biochemistry analyser (Olympus-2000, Tokyo, Japan). Creatinine clearance was calculated. The kidneys were removed, weighed, and parts of them frozen at −80°C until processing for Western blot and RNA extraction, while other parts were removed for histological examination.
# IL-6 = assay: Renal IL-6 level by ELISA in diabetic rats; assay type: in vivo, rat; settings: XXD 1.25 and 2.5 g/kg, losartan 10 mg/kg ig once a day, 12 weeks; compared with DM
# Method: as §2
# TGF-β1 = assay: Renal TGF-β1 protein and mRNA expression in diabetic rats; assay type: in vivo, rat; settings: XXD 1.25 and 2.5 g/kg, losartan 10 mg/kg ig once a day, 12 weeks; compared with DM
# Method: as §2, with “The membrane-bound antibody was detected by incubation with chemiluminescent reagent plus (Perkin Elmer Life Sciences, Boston, MA, USA)” for “Tumor necrosis factor α (TNF-α), IL-6”, “and” for “and AGEs protein levels in renal tissue were measured using commercial ELISA kits (R&D, Minneapolis, MN, USA) according to”, “signal captured on X-ray film. […]” for “manufacturer's instructions.”
# NF-κB signalling pathway = assay: Renal NF-κB signalling pathway (western blot, real-time PCR) in diabetic rats; assay type: in vivo, rat; settings: XXD 1.25 and 2.5 g/kg, losartan 10 mg/kg ig once a day, 12 weeks; compared with DM
# Method: as §2, with “The membrane-bound antibody was detected by incubation with chemiluminescent reagent plus (Perkin Elmer Life Sciences, Boston, MA, USA)” for “Tumor necrosis factor α (TNF-α), IL-6”, “and” for “and AGEs protein levels in renal tissue were measured using commercial ELISA kits (R&D, Minneapolis, MN, USA) according to”, “signal captured on X-ray film. […]” for “manufacturer's instructions.”
# [5] = XXD 1.25 g/kg intragastric gavage for 12 weeks
# [6] = XXD 2.5 g/kg intragastric gavage for 12 weeks
# [7] = metformin 100 mg/kg ig once a day 12 weeks
# [8] = losartan 10 mg/kg ig once a day 12 weeks
compound,measurement,setting,value
"COc1ccc2cc3[n+](cc2c1OC)CCc1cc2c(cc1-3)OCO2 [Berberine, berberine]",shape of plasma concentration-time curve,[1]; after ig administration of XXD for 12 weeks,double peaks
same,AUC(0-t),[1]; [5],757 ± 389 ng·h/mL
same,Cmax,[1]; [5],51 ± 20 ng/mL
same,AUC(0-t),[1]; [6],1730 ± 1040 ng·h/mL
same,Cmax,[1]; [6],118 ± 78 ng/mL
same,anti-DN effects,diabetic nephropathy,exhibited anti-DN effects
same,"TGF-β1, ICAM-1, and VCAM-1 protein expression",diabetic mouse kidney,downregulating
same,renal AGE generation,diabetic mouse kidney,inhibiting
same,IKBα protein level,diabetic mouse kidney; diabetic mouse kidney,increased
same,NF-κBp65 protein level,diabetic mouse kidney; diabetic mouse kidney,decreased
same,blood lipid levels,gut microbes,reduced
CN(C)C(=N)N=C(N)N [metformin],Serum triglyceride,diabetic rats [2]; [7],1.0 ± 0.3 mmol/L
same,Serum cholesterol,diabetic rats [2]; [7],1.2 ± 0.4 mmol/L
same,HbA1c,diabetic rats [2]; [7],6.6 ± 0.5 %
same,FBG,diabetic rats [2]; [7],9.4 ± 2.5 mmol/L
same,GAUC (area under the blood glucose response curve),diabetic rats [2]; [7],70.9 ± 9.5 mmol·h/L
same,"renal pathological changes (glomerular hypertrophy, mesangial matrix expansion, M/G, basement membrane thickening)",diabetic rats [3],ameliorated
same,total renal AGEs content,AGEs,significantly reduced
same,renal RAGE expression,RAGE,downregulated
same,renal protein and mRNA MCP-1 expression,MCP-1,significant reduction
same,renal protein and mRNA ICAM-1 expression,ICAM-1,significant reduction
same,renal TNF-α level,TNF-α,significant reduction
CCCCc1nc(Cl)c(CO)n1Cc1ccc(-c2ccccc2-c2nn[nH]n2)cc1 [losartan],Serum triglyceride,diabetic rats [2]; [8],0.7 ± 0.3 mmol/L
same,Serum cholesterol,diabetic rats [2]; [8],1.3 ± 0.2 mmol/L
same,HbA1c,diabetic rats [2]; [8],6.9 ± 0.2%
same,FBG,diabetic rats [2]; [8],21.6 ± 4.4 mmol/L
same,GAUC (area under the blood glucose response curve),diabetic rats [2]; [8],111.8 ± 11.1 mmol·h/L
same,urinary albumin excretion (UAE),"diabetic rats [4]; XXD 1.25 and 2.5 g/kg, losartan 10 mg/kg, metformin 100 mg/kg ig once a day, 12 weeks, compared with DM",significantly reduced
same,Kidney weight/body weight,"diabetic rats [4]; losartan 10 mg/kg ig once a day 12 weeks, DM 1.18 ± 0.06",1.00 ± 0.05 %
same,"renal pathological changes (glomerular hypertrophy, mesangial matrix expansion, M/G, basement membrane thickening)",diabetic rats [3],ameliorated
same,renal protein and mRNA MCP-1 expression,MCP-1,significantly downregulated
same,renal protein and mRNA ICAM-1 expression,ICAM-1,significantly downregulated
same,renal TNF-α level,TNF-α,significantly downregulated
same,renal IL-6 level,IL-6,significantly downregulated
same,renal TGF-β1 protein and mRNA expression,TGF-β1,significantly downregulated
same,"renal IKKα, phospho-IκBα, phospho-NF-κBp65, NF-κBp65 and IκBα protein expression changes",NF-κB signalling pathway,significantly ameliorated
same,renal NF-κBp65 mRNA expression,NF-κB signalling pathway,downregulated
